Data as given in patent US8980888B2, “Pyrazole derivative” (Mochida Pharmaceutical Co., Ltd., priority 2013, dated 2015).

The molecules below were run against T1, Human PDE10 (Homo sapiens, UniProt Q9Y233) (assay: Human PDE10 inhibitory effect (IMAP TR-FRET enzyme inhibition assay)). Settings: PDE10 inhibitory activity, cAMP substrate.
T1 construct: purchased BPA Bioscience (so in the source)
Type: biochemical
Procedure: (Evaluation of Enzyme Inhibitory Activity: Human PDE10 Inhibitory Effect)
IMAP TR-FRET Phosphodiersterase Evaluation Assay Kit (Molecular Device) was used for the measurement. Ten μL of a diluted test compound having each concentration and 5 μL of the enzyme PDE10 (BPA Bioscience) that had been diluted to 2 ng/mL with 1×IMAP Reaction Buffer (prepared with 5× included with the kit, 10 mM Tris-HCl, pH=7.2, 10 mM MgCl2, 0.05% NaN3, and 0.1% BSA) containing 0.1% BSA were added to a 384-well plate (Corning). The obtained mixture was then pre-incubated at room temperature for 5 minutes. Thereafter, 5 μL of cAMP substrate solution which was included with the kit and diluted to 400 nM with 1×IMAP Reaction Buffer containing 0.1% BSA, was added to the reaction solution, and the obtained mixture was reacted at room temperature for 60 minutes. Thereafter, 60 μL of an IMAP TR-FRET Binding solution included with the kit was further added to the reaction solution, and the obtained mixture was then left for 3 hours or more. Subsequently, using ARVO SX (PerkinElmer), the fluorescent intensity of Terbium (Emission=490 nm) and TR-FRET (Emission=520 nm) in the reaction solution were measured at an excitation wavelength of 340 nm, so as to calculate the amount of the generated 5′-AMP. The count of a well to which a solvent had been added instead of the test compound was set at 0%, and the count of a well to which the enzyme PDE10 had not been added was set at 100%. Thus, the inhibitory activity of each test compound was calculated.
The PDE10 inhibitory activity of the test compound was indicated with an IC50 value. […] The test compounds are shown in Table 3 (Table 3-1 and Table 3-2).

T1 sequence (Q9Y233 whole entry): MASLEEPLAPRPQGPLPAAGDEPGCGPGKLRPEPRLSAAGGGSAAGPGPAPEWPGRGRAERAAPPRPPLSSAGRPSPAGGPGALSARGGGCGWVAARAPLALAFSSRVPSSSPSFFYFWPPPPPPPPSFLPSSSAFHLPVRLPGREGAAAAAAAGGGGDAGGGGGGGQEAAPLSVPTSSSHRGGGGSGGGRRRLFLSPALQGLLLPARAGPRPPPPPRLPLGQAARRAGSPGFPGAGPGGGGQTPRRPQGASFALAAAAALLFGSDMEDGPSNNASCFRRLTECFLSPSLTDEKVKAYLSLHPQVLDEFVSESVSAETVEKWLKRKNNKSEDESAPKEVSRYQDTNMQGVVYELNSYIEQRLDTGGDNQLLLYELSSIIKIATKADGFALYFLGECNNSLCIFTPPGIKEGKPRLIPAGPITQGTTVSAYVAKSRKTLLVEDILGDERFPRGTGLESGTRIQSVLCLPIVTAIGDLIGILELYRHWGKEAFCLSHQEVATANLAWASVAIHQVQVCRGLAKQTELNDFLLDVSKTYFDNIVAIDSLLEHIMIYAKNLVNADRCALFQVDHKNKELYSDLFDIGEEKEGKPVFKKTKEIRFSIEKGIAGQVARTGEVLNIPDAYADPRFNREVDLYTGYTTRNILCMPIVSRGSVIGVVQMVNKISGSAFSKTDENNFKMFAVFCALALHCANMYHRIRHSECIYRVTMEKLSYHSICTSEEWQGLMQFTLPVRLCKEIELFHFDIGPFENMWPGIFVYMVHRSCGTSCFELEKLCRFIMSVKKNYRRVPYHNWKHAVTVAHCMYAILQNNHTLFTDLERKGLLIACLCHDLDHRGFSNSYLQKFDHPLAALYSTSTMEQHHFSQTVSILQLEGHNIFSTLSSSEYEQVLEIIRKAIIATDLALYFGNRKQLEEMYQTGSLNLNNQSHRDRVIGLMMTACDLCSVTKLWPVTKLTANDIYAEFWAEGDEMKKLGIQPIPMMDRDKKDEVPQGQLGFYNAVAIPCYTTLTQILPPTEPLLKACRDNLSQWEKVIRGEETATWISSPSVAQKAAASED

| IC50 [nM] | SMILES |
| --- | --- |
| < 5 | Cc1csc(-c2cnn(C)c2C(=O)NC2CCn3cc(-c4ccccc4)nc3C2)n1 (centres unmarked) [Example 2.1, 1-methyl-4-(4-methylthiazol-2-yl)-N-(2-phenyl-5,6,7,8-tetrahydroimidazo[1,2-a]pyridin-7-yl)-1H-pyrazole-5-carboxamide] |
| < 5 | Cc1nc(-c2cnn(C)c2C(=O)NC2CCn3cc(-c4ccccc4)nc3C2)sc1C (centres unmarked) [Example 2.2, 4-(4,5-dimethylthiazol-2-yl)-1-methyl-N-(2-phenyl-5,6,7,8-tetrahydroimidazo[1,2-a]pyridin-7-yl)-1H-pyrazole-5-carboxamide] |
| < 5 | Cc1sc(-c2cnn(C)c2C(=O)NC2CCn3cc(-c4cccc(F)c4)nc3C2)nc1C(F)F (centres unmarked) [Example 2.7, 4-(4-(difluoromethyl)-5-methylthiazol-2-yl)-N-(2-(3-fluorophenyl)-5,6,7,8-tetrahydroimidazo[1,2-a]pyridin-7-yl)-1-methyl-1H-pyrazole-5-carboxamide] |
| < 5 | Cc1nnc(-c2cnn(C)c2C(=O)NC2CCn3cc(-c4ccccc4)nc3C2)s1 (centres unmarked) [Example 2.10, 1-methyl-4-(5-methyl-1,3,4-thiadiazol-2-yl)-N-(2-phenyl-5,6,7,8-tetrahydroimidazo[1,2-a]pyridin-7-yl)-1H-pyrazole-5-carboxamide] |
| 5 to 100 | Cc1ccnc(-c2cnn(C)c2C(=O)NC2CCn3cc(-c4ccccc4)nc3C2)n1 (centres unmarked) [Example 2.16, 1-methyl-4-(4-methylpyrimidin-2-yl)-N-(2-phenyl-5,6,7,8-tetrahydroimidazo[1,2-a]pyridin-7-yl)-1H-pyrazole-5-carboxamide] |
| 5 to 100 | Cn1cnc(-c2cnn(C)c2C(=O)NC2CCn3cc(-c4ccccc4)nc3C2)c1 (centres unmarked) [Example 2.17, 1-methyl-4-(1-methyl-1H-imidazol-4-yl)-N-(2-phenyl-5,6,7,8-tetrahydroimidazo[1,2-a]pyridin-7-yl)-1H-pyrazole-5-carboxamide] |
| 5 to 100 | Cc1nnc(-c2cnn(C)c2C(=O)NC2CCn3cc(-c4cc(F)ccc4F)nc3C2)s1 (centres unmarked) [Example 2.18, N-(2-(2,5-difluorophenyl)-5,6,7,8-tetrahydroimidazo[1,2-a]pyridin-7-yl)-1-methyl-4-(5-methyl-1,3,4-thiadiazol-2-yl)-1H-pyrazole-5-carboxamide] |
| < 5 | Cn1ncc(-c2nc(C(F)F)cs2)c1C(=O)NC1CCn2cc(-c3cccc(F)c3)nc2C1 (centres unmarked) [Example 2.20, 4-(4-(difluoromethyl)thiazol-2-yl)-N-(2-(3-fluorophenyl)-5,6,7,8-tetrahydroimidazo[1,2-a]pyridin-7-yl)-1-methyl-1H-pyrazole-5-carboxamide] |
| 5 to 100 | Cc1ccc(-c2cnn(C)c2C(=O)NC2CCn3cc(-c4ccccc4)nc3C2)nc1 (centres unmarked) [Example 2.21, 1-methyl-4-(5-methylpyridin-2-yl)-N-(2-phenyl-5,6,7,8-tetrahydroimidazo[1,2-a]pyridin-7-yl)-1H-pyrazole-5-carboxamide] |
| 5 to 100 | Cc1ccnc(-c2cnn(C)c2C(=O)NC2CCn3cc(-c4cccc(F)c4)nc3C2)n1 (centres unmarked) [Example 2.23, N-(2-(3-fluorophenyl)-5,6,7,8-tetrahydroimidazo[1,2-a]pyridin-7-yl)-1-methyl-4-(4-methylpyrimidin-2-yl)-1H-pyrazole-5-carboxamide] |
| 5 to 100 | Cc1cncc(-c2cnn(C)c2C(=O)NC2CCn3cc(-c4cccc(F)c4)nc3C2)n1 (centres unmarked) [Example 2.24, N-(2-(3-fluorophenyl)-5,6,7,8-tetrahydroimidazo[1,2-a]pyridin-7-yl)-1-methyl-4-(6-methylpyrazin-2-yl)-1H-pyrazole-5-carboxamide] |
| 5 to 100 | Cn1ncc(-c2cscn2)c1C(=O)NC1CCn2cc(-c3ccccc3)nc2C1 (centres unmarked) [Example 2.25, 1-methyl-N-(2-phenyl-5,6,7,8-tetrahydroimidazo[1,2-a]pyridin-7-yl)-4-(thiazol-4-yl)-1H-pyrazole-5-carboxamide] |
| 5 to 100 | Cn1ncc(-c2nccs2)c1C(=O)NC1CCn2cc(-c3ccccc3)nc2C1 (centres unmarked) [Example 2.26, 1-methyl-N-(2-phenyl-5,6,7,8-tetrahydroimidazo[1,2-a]pyridin-7-yl)-4-(thiazol-2-yl)-1H-pyrazole-5-carboxamide] |
| 5 to 100 | Cn1ncc(-c2nc(C(C)(C)C)cs2)c1C(=O)NC1CCn2cc(-c3ccccc3)nc2C1 (centres unmarked) [Example 2.27, 4-(4-(tert-butyl)thiazol-2-yl)-1-methyl-N-(2-phenyl-5,6,7,8-tetrahydroimidazo[1,2-a]pyridin-7-yl)-1H-pyrazole-5-carboxamide] |
| < 5 | Cc1cccnc1-c1cnn(C)c1C(=O)Nc1cc2nc(-c3ccccc3)nn2cc1F [Example 3.1, N-(6-fluoro-2-phenyl-[1,2,4]triazolo[1,5-a]pyridin-7-yl)-1-methyl-4-(3-methylpyridin-2-yl)-1H-pyrazole-5-carboxamide] |
| < 5 | Cc1cnc(-c2cnn(C)c2C(=O)Nc2cc3nc(-c4ccccc4)nn3cc2F)cn1 [Example 3.2, N-(6-fluoro-2-phenyl-[1,2,4]triazolo[1,5-a]pyridin-7-yl)-1-methyl-4-(5-methylpyrazin-2-yl)-1H-pyrazole-5-carboxamide] |
| < 5 | Cc1cccc(-c2cnn(C)c2C(=O)Nc2cc3nc(-c4ccccc4)nn3cc2F)n1 [Example 3.3, N-(6-fluoro-2-phenyl-[1,2,4]triazolo[1,5-a]pyridin-7-yl)-1-methyl-4-(6-methylpyridin-2-yl)-1H-pyrazole-5-carboxamide] |
| < 5 | Cn1ncc(-c2cc(F)ccn2)c1C(=O)Nc1cc2nc(-c3ccccc3)nn2cc1F [Example 3.4, N-(6-fluoro-2-phenyl-[1,2,4]triazolo[1,5-a]pyridin-7-yl)-4-(4-fluoropyridin-2-yl)-1-methyl-1H-pyrazole-5-carboxamide] |
| < 5 | Cc1ccnc(-c2cnn(C)c2C(=O)Nc2cc3nc(-c4ccccc4)nn3cc2F)c1 [Example 3.5, N-(6-fluoro-2-phenyl-[1,2,4]triazolo[1,5-a]pyridin-7-yl)-1-methyl-4-(4-methylpyridin-2-yl)-1H-pyrazole-5-carboxamide] |
| < 5 | Cn1ncc(-c2cccc(C(F)(F)F)n2)c1C(=O)Nc1cc2nc(-c3ccccc3)nn2cc1F [Example 3.10, N-(6-fluoro-2-phenyl-[1,2,4]triazolo[1,5-a]pyridin-7-yl)-1-methyl-4-(6-(trifluoromethyl)pyridin-2-yl)-1H-pyrazole-5-carboxamide] |
| < 5 | Cn1ncc(-c2nc(C(F)F)c(Cl)s2)c1C(=O)Nc1ccn2nc(-c3ccccc3)nc2c1 [Example 3.20, 4-(5-chloro-4-(difluoromethyl)thiazol-2-yl)-1-methyl-N-(2-phenyl-[1,2,4]triazolo[1,5-a]pyridin-7-yl)-1H-pyrazole-5-carboxamide] |
| 5 to 100 | COc1ccccc1-c1nc2cc(NC(=O)c3c(-c4nc(C(F)F)c(Cl)s4)cnn3C)cc(Cl)n2n1 [Example 3.21, N-(5-chloro-2-(2-methoxyphenyl)-[1,2,4]triazolo[1,5-a]pyridin-7-yl)-4-(5-chloro-4-(difluoromethyl)thiazol-2-yl)-1-methy 1-1H-pyrazole-5-carboxamide] |
| < 5 | Cc1cc(-c2cnn(C)c2C(=O)Nc2cc3nc(-c4ccccc4)nn3cc2F)nc(C)n1 [Example 3.30, 4-(2,6-dimethylpyrimidin-4-yl)-N-(6-fluoro-2-phenyl-[1,2,4]triazolo[1,5-a]pyridin-7-yl)-1-methyl-1H-pyrazole-5-carboxamide] |
